Measurements from ChEMBL document CHEMBL1687830, “Evaluation of ceftazidime and NXL104 in two murine models of infection due to KPC-producing Klebsiella pneumoniae” (2011).
In brackets after ≈: the same amount, converted by molar mass.

Assays:
Format in all cases: functional
Klebsiella pneumoniae [1] = test: Antimicrobial activity against carbapenemases KPC-producing Klebsiella pneumoniae VA-361 infected in sc dosed CD-1 mouse in presence of 1 ug/ml NXL104 beta-lactamase inhibitor
Klebsiella pneumoniae [2] = test: Antimicrobial activity against carbapenemases KPC-producing Klebsiella pneumoniae VA-361 infected in sc dosed CD-1 mouse in presence of 4 ug/ml NXL104 beta-lactamase inhibitor
Klebsiella pneumoniae [3] = test: Antimicrobial activity against carbapenemases KPC-producing Klebsiella pneumoniae VA-361 infected in sc dosed CD-1 mouse in presence of 4 ug/ml Tazobactam beta-lactamase inhibitor
Klebsiella pneumoniae [4] = test: Antimicrobial activity against carbapenemases KPC-producing Klebsiella pneumoniae VA-361 infected in sc dosed CD-1 mouse
Klebsiella pneumoniae [5] = test: Antimicrobial activity against carbapenemases KPC-producing Klebsiella pneumoniae VA-406 infected in sc dosed CD-1 mouse in presence of 4 ug/ml NXL104 beta-lactamase inhibitor
Klebsiella pneumoniae [6] = test: Antimicrobial activity against carbapenemases KPC-producing Klebsiella pneumoniae VA-406 infected in sc dosed CD-1 mouse in presence of 4 ug/ml Tazobactam beta-lactamase inhibitor
Klebsiella pneumoniae [7] = test: Antimicrobial activity against carbapenemases KPC-producing Klebsiella pneumoniae VA-406 infected in sc dosed CD-1 mouse in presence of 4 ug/ml cavulanate beta-lactamase inhibitor
Klebsiella pneumoniae [8] = test: Antimicrobial activity against carbapenemases KPC-producing Klebsiella pneumoniae VA-406 infected in sc dosed CD-1 mouse
Klebsiella pneumoniae [9] = test: Antimicrobial activity against Klebsiella pneumoniae ATCC 13883 infected in sc dosed CD-1 mouse septicemia infection model by acute lethal septicemia analysis; details: ATCC 13883, sc
Klebsiella pneumoniae [10] = test: Antimicrobial activity against carbapenemases KPC-producing Klebsiella pneumoniae VA-361 infected in sc dosed CD-1 mouse septicemia infection model by acute lethal septicemia analysis; details: VA-361, sc
Klebsiella pneumoniae [11] = test: Antimicrobial activity against carbapenemases KPC-producing Klebsiella pneumoniae VA-406 infected in sc dosed CD-1 mouse septicemia infection model by acute lethal septicemia analysis; details: VA-406, sc
Klebsiella pneumoniae [12] = test: Antimicrobial activity against Klebsiella pneumoniae ATCC 13883 infected in sc dosed CD-1 mouse septicemia infection model at 2:1 compound to NXL104 beta-lactamase inhibitor ratio by acute lethal septicemia analysis; details: ATCC 13883, sc
Klebsiella pneumoniae [13] = test: Antimicrobial activity against carbapenemases KPC-producing Klebsiella pneumoniae VA-361 infected in sc dosed CD-1 mouse septicemia infection model at 2:1 compound to NXL104 beta-lactamase inhibitor ratio by acute lethal septicemia analysis; details: VA-361, sc
Klebsiella pneumoniae [14] = test: Antimicrobial activity against carbapenemases KPC-producing Klebsiella pneumoniae VA-406 infected in sc dosed CD-1 mouse septicemia infection model at 4:1 compound to NXL104 beta-lactamase inhibitor ratio by acute lethal septicemia analysis; details: VA-406, sc
Klebsiella pneumoniae [15] = test: Antimicrobial activity against Klebsiella pneumoniae ATCC 13883 infected in sc dosed CD-1 mouse septicemia infection model at 8:1 compound to NXL104 beta-lactamase inhibitor ratio by acute lethal septicemia analysis; details: ATCC 13883, sc
Klebsiella pneumoniae [16] = test: Antimicrobial activity against carbapenemases KPC-producing Klebsiella pneumoniae VA-361 infected in sc dosed CD-1 mouse septicemia infection model at 16:1 compound to NXL104 beta-lactamase inhibitor ratio by acute lethal septicemia analysis; details: VA-361, sc
Klebsiella pneumoniae [17] = test: Antimicrobial activity against carbapenemases KPC-producing Klebsiella pneumoniae VA-406 infected in sc dosed CD-1 mouse septicemia infection model at 16:1 compound to NXL104 beta-lactamase inhibitor ratio by acute lethal septicemia analysis; details: VA-406, sc
Klebsiella pneumoniae [18] = test: Antimicrobial activity against carbapenemases KPC-producing Klebsiella pneumoniae VA-406 infected in CD-1 mouse thigh infection model assessed as change in log10 CFU reduction per thigh treated 1.5 hr post infection at >=1024:256 mg/kg, sc compound to NXL104 beta-lactamase inhibitor ratio after 24 hrs by acute lethal septicemia analysis (reference value: 8.67 log10CFU/thigh)
Klebsiella pneumoniae [19] = test: Antimicrobial activity against carbapenemases KPC-producing Klebsiella pneumoniae VA-361 infected in CD-1 mouse thigh infection model assessed as change in log10 CFU reduction per thigh treated 1.5 hr post infection at >=512:128 mg/kg, sc compound to NXL104 beta-lactamase inhibitor ratio after 24 hrs by acute lethal septicemia analysis (reference value: 8.93 log10CFU/thigh)
Klebsiella pneumoniae [20] = test: Antimicrobial activity against carbapenemases KPC-producing Klebsiella pneumoniae VA-406 infected in CD-1 mouse thigh infection model assessed as change in log10 CFU reduction per thigh treated 1.5 hr post infection at >=512:128 mg/kg, sc compound to NXL104 beta-lactamase inhibitor ratio after 24 hrs by acute lethal septicemia analysis (reference value: 8.67 log10CFU/thigh)
Klebsiella pneumoniae [21] = test: Antimicrobial activity against carbapenemases KPC-producing Klebsiella pneumoniae VA-361 infected in CD-1 mouse thigh infection model assessed as change in log10 CFU reduction per thigh treated 1.5 hr post infection at >=256:64 mg/kg, sc compound to NXL104 beta-lactamase inhibitor ratio after 24 hrs by acute lethal septicemia analysis (reference value: 8.93 log10CFU/thigh)
Klebsiella pneumoniae [22] = test: Antimicrobial activity against carbapenemases KPC-producing Klebsiella pneumoniae VA-406 infected in CD-1 mouse thigh infection model assessed as change in log10 CFU reduction per thigh treated 1.5 hr post infection at >=128:32 mg/kg, sc compound to NXL104 beta-lactamase inhibitor ratio after 24 hrs by acute lethal septicemia analysis (reference value: 8.67 log10CFU/thigh)
Klebsiella pneumoniae [23] = test: Antimicrobial activity against carbapenemases KPC-producing Klebsiella pneumoniae VA-361 infected in CD-1 mouse thigh infection model assessed as change in log10 CFU reduction per thigh treated 1.5 hr post infection at >=64:16 mg/kg, sc compound to NXL104 beta-lactamase inhibitor ratio after 24 hrs by acute lethal septicemia analysis (reference value: 8.93 log10CFU/thigh)
Klebsiella pneumoniae [24] = test: Antimicrobial activity against carbapenemases KPC-producing Klebsiella pneumoniae VA-406 infected in CD-1 mouse thigh infection model assessed as change in log10 CFU reduction per thigh treated 1.5 hr post infection at >=64:16 mg/kg, sc compound to NXL104 beta-lactamase inhibitor ratio after 24 hrs by acute lethal septicemia analysis
Klebsiella pneumoniae [25] = test: Antimicrobial activity against carbapenemases KPC-producing Klebsiella pneumoniae VA-361 infected in CD-1 mouse thigh infection model assessed as change in log10 CFU reduction per thigh treated 1.5 hr post infection at >=32:8 mg/kg, sc compound to NXL104 beta-lactamase inhibitor ratio after 24 hrs by acute lethal septicemia analysis (reference value: 8.93 log10CFU/thigh)
Klebsiella pneumoniae [26] = test: Antimicrobial activity against carbapenemases KPC-producing Klebsiella pneumoniae VA-406 infected in CD-1 mouse thigh infection model assessed as change in log10 CFU reduction per thigh treated 1.5 hr post infection at >=32:8 mg/kg, sc compound to NXL104 beta-lactamase inhibitor ratio after 24 hrs by acute lethal septicemia analysis (reference value: 8.67 log10CFU/thigh)
Klebsiella pneumoniae [27] = test: Antimicrobial activity against carbapenemases KPC-producing Klebsiella pneumoniae VA-406 infected in CD-1 mouse thigh infection model assessed as change in log10 CFU reduction per thigh treated 1.5 hr post infection at >=16:4 mg/kg, sc compound to NXL104 beta-lactamase inhibitor ratio after 24 hrs by acute lethal septicemia analysis (reference value: 8.67 log10CFU/thigh)

## CC(C)(O/N=C(\C(=O)N[C@@H]1C(=O)N2C(C(=O)[O-])=C(C[n+]3ccccc3)CS[C@H]12)c1csc(N)n1)C(=O)O [CEFTAZIDIME]
Klebsiella pneumoniae [1]
  MIC: 8 µg/mL
Klebsiella pneumoniae [2]
  MIC: 0.25 µg/mL
Klebsiella pneumoniae [3]
  MIC: 128 µg/mL
Klebsiella pneumoniae [4]
  MIC: 256 µg/mL (≈ 468 µM)
Klebsiella pneumoniae [5]
  MIC: ≤ 0.06 µg/mL
Klebsiella pneumoniae [6]
  MIC: 256 µg/mL
Klebsiella pneumoniae [7]
  MIC: 256 µg/mL
Klebsiella pneumoniae [8]
  MIC: ≥ 512 µg/mL
Klebsiella pneumoniae [9]
  ED50: 1.9 mg/kg
Klebsiella pneumoniae [10]
  ED50: 1580 mg/kg
Klebsiella pneumoniae [11]
  ED50: 709 mg/kg
Klebsiella pneumoniae [12]
  ED50: 1 mg/kg
Klebsiella pneumoniae [13]
  ED50: 8.1 mg/kg
Klebsiella pneumoniae [14]
  ED50: 3.8 mg/kg
Klebsiella pneumoniae [15]
  ED50: 0.62 mg/kg
Klebsiella pneumoniae [16]
  ED50: 29.5 mg/kg
Klebsiella pneumoniae [17]
  ED50: 12.1 mg/kg
Klebsiella pneumoniae [18]
  log10cfu: -1.59
Klebsiella pneumoniae [19]
  log10cfu: -1.47
Klebsiella pneumoniae [20]
  log10cfu: -1.03
Klebsiella pneumoniae [21]
  log10cfu: -0.85
Klebsiella pneumoniae [22]
  log10cfu: -0.46
Klebsiella pneumoniae [23]
  log10cfu: 2.19
Klebsiella pneumoniae [24]
  log10cfu: 2.06
Klebsiella pneumoniae [25]
  log10cfu: 2.32
Klebsiella pneumoniae [26]
  log10cfu: 2.33
Klebsiella pneumoniae [27]
  log10cfu: 2.69
